US20240124464A1, “SUBSTITUTED FUSED BICYCLIC COMPOUND AS KINASE INHIBITOR AND USE THEREOF” (IMPACT THERAPEUTICS (SHANGHAI), INC, priority 2020, published 2024)

Tests used:
[1] = target: T1, NUAK1(h) enzyme (Homo sapiens, UniProt O60285); assay: In vitro NUAK1 enzymatic assay (Eurofins Discovery, [γ-33P]-ATP filter assay); assay type: biochemical; settings: 45 μM ATP, 40 min, room temperature; read-out: IC50, inhibitory effect on NUAK1 enzyme activity
T1 construct: purchased Eurofins Discovery
T1 sequence (O60285 1-661): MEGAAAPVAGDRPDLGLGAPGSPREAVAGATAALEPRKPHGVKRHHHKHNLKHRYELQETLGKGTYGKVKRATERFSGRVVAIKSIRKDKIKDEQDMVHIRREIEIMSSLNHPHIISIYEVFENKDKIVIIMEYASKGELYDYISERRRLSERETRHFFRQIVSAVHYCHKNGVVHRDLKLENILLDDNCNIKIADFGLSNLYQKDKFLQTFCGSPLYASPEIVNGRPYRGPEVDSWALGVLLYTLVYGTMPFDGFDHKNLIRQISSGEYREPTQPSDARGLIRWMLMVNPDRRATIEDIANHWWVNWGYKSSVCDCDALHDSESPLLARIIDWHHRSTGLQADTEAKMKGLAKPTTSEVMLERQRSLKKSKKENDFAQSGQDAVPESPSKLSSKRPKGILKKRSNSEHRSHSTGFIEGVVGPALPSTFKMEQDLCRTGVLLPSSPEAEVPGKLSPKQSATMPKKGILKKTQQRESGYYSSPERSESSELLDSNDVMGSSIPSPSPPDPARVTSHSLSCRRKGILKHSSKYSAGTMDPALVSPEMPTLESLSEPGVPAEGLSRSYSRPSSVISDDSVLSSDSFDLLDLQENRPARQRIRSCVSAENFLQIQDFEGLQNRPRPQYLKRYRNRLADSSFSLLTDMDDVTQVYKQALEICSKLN
Experimental: In Vitro Assay to Determine the Inhibitory Effect of Compounds in the Patent on NUAK1 Enzymatic Activity
The in vitro NUAK1 enzymatic assay was carried out at Eurofins Discovery to evaluate the inhibitory effect of the compounds presented in the invention. The assay protocol is as follow: the compound to be tested was mixed with NUAK1(h) enzyme and 300 μM […] substrate in 8 mM MOPS (pH 7.0) buffer containing 0.2 mM EDTA and incubated at room temperature. A Mg/ATP mixture containing 10 mM magnesium acetate and 45 μM [y-33P]-ATP was added to start the reaction. After incubation for 40 min at room temperature, the reaction was terminated by adding 0.5% phosphoric acid. Then, 10 μL of the reaction mix was spotted onto a P30 filter paper followed with four times of wash with 0.425% phosphoric acid solution (4 min each time), and one time wash with methanol. The filter paper was air-dried and counted in a liquid scintillation counter. The values obtained were plotted against the drug concentration and the IC50 was calculated.
Table 1 summarizes the inhibitory effect (IC50) of compounds tested on the NUAK1 enzyme activity in the present invention. ++++ indicates IC50≤10 nM; […]; ++ indicates 100 nM<IC50≤1 μM; + indicates IC50>1 μM.

[2] = target: T2, NUAK2(h) enzyme (Homo sapiens, UniProt Q9H093); assay: In vitro NUAK2 enzymatic assay (Eurofins Discovery, [γ-33P]-ATP filter assay); assay type: biochemical; settings: 45 μM ATP, 40 min, room temperature; read-out: IC50, inhibitory effect on NUAK2 enzyme activity
T2 construct: purchased Eurofins Discovery
T2 sequence (Q9H093 1-628): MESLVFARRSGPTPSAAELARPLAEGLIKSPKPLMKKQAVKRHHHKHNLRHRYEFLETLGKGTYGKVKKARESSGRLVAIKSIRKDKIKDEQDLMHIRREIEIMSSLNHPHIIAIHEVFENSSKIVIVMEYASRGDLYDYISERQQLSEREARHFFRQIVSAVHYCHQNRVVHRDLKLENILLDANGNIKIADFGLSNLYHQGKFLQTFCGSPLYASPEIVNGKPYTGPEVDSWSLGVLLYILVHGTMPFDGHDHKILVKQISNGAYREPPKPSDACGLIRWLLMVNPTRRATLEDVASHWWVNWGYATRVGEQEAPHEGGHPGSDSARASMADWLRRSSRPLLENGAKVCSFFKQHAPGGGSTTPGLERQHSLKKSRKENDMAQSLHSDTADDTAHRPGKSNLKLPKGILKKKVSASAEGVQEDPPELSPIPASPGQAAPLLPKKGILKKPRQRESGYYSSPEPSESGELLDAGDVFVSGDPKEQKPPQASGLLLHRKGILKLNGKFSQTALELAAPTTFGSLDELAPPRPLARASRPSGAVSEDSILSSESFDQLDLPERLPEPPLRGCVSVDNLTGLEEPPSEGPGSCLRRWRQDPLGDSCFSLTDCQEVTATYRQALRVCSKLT
Experimental: In Vitro Assay to Determine the Inhibitory Effect of Compounds in the Patent on NUAK2 Enzymatic Activity
The in vitro NUAK2 enzymatic assay was carried out at Eurofins Discovery to evaluate the inhibitory effect of the compounds presented in the invention. The assay protocol is as follow: the compound to be tested was mixed with NUAK2(h) enzyme and 300 […] substrate in 8 mM MOPS (pH 7.0) buffer containing 0.2 mM EDTA. A Mg/ATP mixture containing 10 mM magnesium acetate and 45 μM [γ-33P]-ATP was added to start the reaction. After incubation for 40 min at room temperature, the reaction was terminated by adding 0.5% phosphoric acid. Then 10 μL of the reaction mix was spotted onto a P30 filter paper. The filter paper was washed four times with 0.425% phosphoric acid with 4 min for each wash, and one time with methanol. The filter paper was air-dried and counted in a liquid scintillation counter. The values obtained were plotted against the drug concentration and the IC50 was calculated.
Table 1 summarizes the inhibitory effect (IC50) of compounds on the NUAK2 enzyme activity in the present invention. ++++ indicates IC50≤10 nM; +++ indicates 10 nM<IC50≤100 nM; ++ indicates 100 nM<IC50≤1 μM; + indicates IC50>1 μM.

[3] = system: HEC-1-B human endometrial cancer cells; assay: CTG (CellTiter-Glo) proliferation assay on HEC-1-B cells, 7 days; assay type: cell-based; settings: 168 h, 7 days incubation, read-out: IC50, inhibitory effect on proliferation of Hec-1B cells
Experimental: CTG Assay to Evaluate the Inhibitory Effect of Compounds on HEC-1-B Human Endometrial Cancer Cells
Human endometrial cancer HEC-1-B cells were resuscitated and cultured in complete medium (MEM medium+10% FBS). When reaching about 80% confluence, the cells were gently blown away from the bottom of the culture dish with a 1 mL pipette. The cells were collected and centrifuged at 500 rpm for 3 min. The supernatant was discarded and the cell pellet was resuspend in fresh medium. Cells were counted to determine cell density and seeded into 96-well plates at a density of 1000 cells per well and incubated overnight at 37° C. in a 5% CO2 incubator. In the next day, the compounds in storage solution was serially diluted with DMSO at a ratio of 1:3 for a total of 9 concentrations. Two μL of each serially diluted solution was added to 98 μL of cell culture medium ([…]), while DMSO was mixed with culture medium similarly to be served as control. The compound dilutions were shaken and mixed. The cell culture plate with cells was removed from CO2 incubator, the culture medium was aspirated from each well, 135 μL of fresh medium was added to each well followed with 15 μL of the compound dilutions. The plates were incubated at 37° C. for 7 days in a 5% CO2 incubator. One hundred μL CellTiter-Glo reagent was added to each well and the plate was vortexed for 2 min and incubated for 10 min to fully lyse the cells. The chemiluminescence values were read using a plate reader.
The chemiluminescence values were plotted against compound concentrations to calculate the inhibitory activity of each compound on cell proliferation Cell inhibition rate (%)=(chemiluminescence value tested compound−chemiluminescence value DMSO control)/(chemiluminescence value medium control−chemiluminescence valueDMSO control)×100%.
A nonlinear S-curve regression was fitted using XLFit software to fit the data to derive a dose-effect curve, from which the IC50 values were calculated. The curve equation was Y=Bottom+(Top-Bottom)/(1+10{acute over ( )}((LogIC50-X)×slope)), where Y is the cellular inhibition rate, X is the compound concentration, Bottom refers to the lowest inhibition rate, and Top refers to the highest inhibition rate.
Table 3 summarizes the inhibitory effects (IC50) of the compounds on the proliferation of Hec-1B cells, Where ++++ indicates 100 nM<IC50≤500 nM; +++ indicates 500 nM<IC50≤1 μM; ++ indicates 1 μM<IC50≤10 μM; + indicates IC50>10 μM.

SMILES | IC50 [1] [nM] | IC50 [2] [nM] | IC50 [3] [nM]
COc1cc(N2CCN(C)CC2)ccc1Nc1ncc2c(n1)N(C1CCCC1)C(=O)NC2 [Example 2, 1-cyclopentyl-7-((2-methoxy-4-(4-methylpiperazin-1-yl)phenyl)amino)-3,4-dihydropyrimido[4,5-d]pyrimidin-2(1H)-one] | 10 to 100 | 10 to 100 | 1000 to 10000
COc1cc(N2CCN(C)CC2)ccc1Nc1ncc2cnc(=O)n(C3CCCC3)c2n1 [Example 5, 1-cyclopentyl-7-((2-methoxy-4-(4-methylpiperazin-1-yl)phenyl)amino)pyrimido[4,5-d]pyrimidin-2(1H)-one] | 100 to 1000 | ≤ 10 | 500 to 1000
COc1cc(N2CCN(C)CC2)ccc1Nc1ncc2cc(C#N)c(=O)n(C3CCCC3)c2n1 [Example 26, 8-cyclopentyl-2-((2-methoxy-4-(4-methylpiperazin-1-yl)phenyl)amino)-7-oxo-7,8-dihydropyrido[2,3-d]pyrimidine-6-carbonitrile] | 10 to 100 | 10 to 100 | 500 to 1000
COc1cc(N2CCN(C)CC2)ccc1Nc1ncc2ccc(=O)n(C3CC3)c2n1 [Example 23, 8-cyclopropyl-2-((2-methoxy-4-(4-methylpiperazin-1-yl)phenyl)amino)pyrido[2,3-d]pyrimidin-7(8H)-one] | 10 to 100 | 100 to 1000 | 100 to 500
COc1cc(N2CCN(C)CC2)ccc1Nc1ncc2ccc(=O)n(C3CCCC3)c2n1 [Example 19, 8-cyclopentyl-2-((2-methoxy-4-(4-methylpiperazin-1-yl)phenyl)amino)pyrido[2,3-d]pyrimidin-7(8H)-one] | 10 to 100 | ≤ 10 | 500 to 1000
COc1cc(N2CCN(C)CC2)ccc1Nc1nnc2ccc(=O)n(C3CCCC3)c2n1 [Example 24, 5-cyclopentyl-3-((2-methoxy-4-(4-methylpiperazin-1-yl)phenyl)amino)pyrido[2,3-e][1,2,4]triazin-6(5H)-one] | 100 to 1000 | 10 to 100 | 500 to 1000
Cc1cc(N2CCN(C)CC2)ccc1Nc1ncc2cnc(=O)n(C3CCCC3)c2n1 [Example 10, 1-cyclopentyl-7-((2-methyl-4-(4-methylpiperazin-1-yl)phenyl)amino)pyrimido[4,5-d]pyrimidin-2(1H)-one] | 100 to 1000 | 10 to 100 | 500 to 1000
COc1cc(N2CCN(C)CC2)ccc1Nc1ncc2ccc(=O)n(C3CCCCC3)c2n1 [Example 22, 8-cyclohexyl-2-((2-methoxy-4-(4-methylpiperazin-1-yl)phenyl)amino)pyrido[2,3-d]pyrimidin-7(8H)-one] | ≤ 10 | ≤ 10 | > 10000
CN1CCN(c2ccc(Nc3ncc4c(n3)N(C3CCCC3)C(=O)NC4)c(Br)c2)CC1 [Example 32, 7-((2-bromo-4-(4-methylpiperazin-1-yl)phenyl)amino)-1-cyclopentyl-3,4-dihydropyrimido[4,5-d]pyrimidin-2(1H)-one] | 10 to 100 | 10 to 100 | 1000 to 10000
COc1cc(N2CCN(C)CC2)ccc1Nc1ncc2c(C)cc(=O)n(C3CCCC3)c2n1 [Example 27, 8-cyclopentyl-2-((2-methoxy-4-(4-methylpiperazin-1-yl)phenyl)amino)-5-methylpyrido[2,3-d]pyrimidin-7(8H)-one] | 100 to 1000 | 100 to 1000 | 1000 to 10000
COc1cc(N2CCN(C)CC2)ccc1Nc1ncc2c(n1)N(C1CCCCC1)C(=O)CC2 [Example 29, 8-cyclohexyl-2-((2-methoxy-4-(4-methylpiperazin-1-yl)phenyl)amino)-5,8-dihydropyrido[2,3-d]pyrimidin-7(6H)-one] | 10 to 100 | 10 to 100 | 500 to 1000
COc1cc(N2CCN(C)CC2)ccc1Nc1ncc2cc(C)c(=O)n(C3CCCC3)c2n1 [Example 20, 8-cyclopentyl-2-((2-methoxy-4-(4-methylpiperazin-1-yl)phenyl)amino)-6-methylpyrido[2,3-d]pyrimidin-7(8H)-one] | 10 to 100 | 10 to 100 | > 10000
COc1cc(N2CCN(C)CC2)ccc1Nc1ncc2c(n1)N(C1CCCC1)C(=O)CC2 [Example 28, 8-cyclopentyl-2-((2-methoxy-4-(4-methylpiperazin-1-yl)phenyl)amino)-5,8-dihydropyrido[2,3-d]pyrimidin-7(6H)-one] | 100 to 1000 | 10 to 100 | 1000 to 10000
COc1cc(N2CCN(C)CC2)ccc1Nc1ncc2cc(C)c(=O)n(C3CC3)c2n1 [Example 21] | 10 to 100 | 100 to 1000 | 100 to 500
